Measured values: PubChem BioAssay AID1845206 (Molecular Pharmacology Branch, DTP, NCI, 2023)
Active and inactive are the calls of the source. Rule for the calls: active = viability on the fitted dose curve at most 10% of control; inactive = the rest.

Test system: NCI-H1618 multicellular tumor spheroid viability
Experiment: Anticancer human tumor NCI-H1618 cell line growth inhibition;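 note: spheroids exposed to agents for 7 days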
Conditions: for IC50: curve of first compound; for viability, T/C: stronger effect = lower value
Outline: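 Complex spheroids of malignant cells with endothelial cells and mesenchymal stem cells; agents alone or combined, from near clinical Cmax (or 10 microM if unknown) down in half-log steps, 0.25% DMSO final.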

[1] = second compound 1 µM, first compound 0.0316 µM
[2] = second compound 1 µM, first compound 0.1 µM
[3] = second compound 1 µM, first compound 0.316 µM
[4] = second compound 1 µM, first compound 1 µM
[5] = second compound 1 µM, first compound 3.16 µM
[6] = second compound 1 µM, first compound 10 µM
[7] = second compound 3.16 µM, first compound 0.0316 µM
[8] = second compound 3.16 µM, first compound 0.1 µM
[9] = second compound 3.16 µM, first compound 0.316 µM
[10] = second compound 3.16 µM, first compound 1 µM
[11] = second compound 3.16 µM, first compound 3.16 µM
[12] = second compound 3.16 µM, first compound 10 µM
[13] = second compound 10 µM, first compound 0.0316 µM
[14] = second compound 10 µM, first compound 0.1 µM
[15] = second compound 10 µM, first compound 0.316 µM
[16] = second compound 10 µM, first compound 1 µM
[17] = second compound 10 µM, first compound 3.16 µM
[18] = second compound 10 µM, first compound 10 µM
[19] = second compound 31.6 µM, first compound 0.0316 µM
[20] = second compound 31.6 µM, first compound 0.1 µM
[21] = second compound 31.6 µM, first compound 0.316 µM
[22] = second compound 31.6 µM, first compound 1 µM
[23] = second compound 31.6 µM, first compound 3.16 µM
[24] = second compound 31.6 µM, first compound 10 µM
[25] = second compound 100 µM, first compound 0.0316 µM
[26] = second compound 100 µM, first compound 0.1 µM
[27] = second compound 100 µM, first compound 0.316 µM
[28] = second compound 100 µM, first compound 1 µM
[29] = second compound 100 µM, first compound 3.16 µM
[30] = second compound 100 µM, first compound 10 µM

SMILES | IC50 (second compound 1 µM) | IC50 (second compound 3.16 µM) | IC50 (second compound 10 µM) | IC50 (second compound 31.6 µM) | IC50 (second compound 100 µM) | viability, T/C [2] | viability, T/C [5] | viability, T/C [6] | viability, T/C [7] | viability, T/C [8] | viability, T/C [9] | viability, T/C [10] | viability, T/C [11] | viability, T/C [12] | viability, T/C [13] | viability, T/C [14] | viability, T/C [15] | viability, T/C [16] | viability, T/C [17] | viability, T/C [18] | further results
CC1COCCN1c1cc(-c2ccnn2C)c2ccnc(-c3ccn[nH]3)c2n1 (stereo not given) + Cn1nnc2c(C(N)=O)ncn2c1=O | < 31.6 nM | < 31.6 nM | < 31.6 nM | < 31.6 nM | < 31.6 nM | 3.94% | 1.02% | 3.48% | 10.3% | 1.64% | 1.41% | 1.67% | 1.26% | 2.12% | 1.82% | 13.4% | 1.48% | 1.19% | 1.65% | 2.14% | viability, T/C [1]: 3.35%; viability, T/C [3]: 1.49%; viability, T/C [4]: 2.09%; viability, T/C [19]: 1.23%; viability, T/C [20]: 1.26%; viability, T/C [21]: 1.34%; viability, T/C [22]: 1.03%; viability, T/C [23]: 1.36%; viability, T/C [24]: 1.55%; viability, T/C [25]: 1.42%; viability, T/C [26]: 1.23%; viability, T/C [27]: 1.48%; viability, T/C [28]: 1.42%; viability, T/C [29]: 13.7%; viability, T/C [30]: 1.05%
COc1cc(C)[nH]c(=O)c1CN1CCc2c(Cl)cc(C(OC)C3COC3)c(Cl)c2C1=O (stereo not given) + Cn1nnc2c(C(N)=O)ncn2c1=O | > 10000 nM | < 31.6 nM | < 31.6 nM | < 31.6 nM | < 31.6 nM | 77.7% | 69.6% | 72.8% | 14.2% | 16.2% | 20.3% | 10.3% | 15.8% | 15.4% | 3.15% | 6.34% | 4.96% | 18.4% | 3.33% | 4.36% | outcome [1]: inactive; outcome [3]: inactive; outcome [4]: inactive; viability, T/C [19]: 6.62%; viability, T/C [20]: 13.3%; viability, T/C [21]: 3.61%; viability, T/C [22]: 5.57%; viability, T/C [23]: 10.4%; viability, T/C [24]: 13%; viability, T/C [25]: 45.3%; viability, T/C [26]: 41.6%; viability, T/C [27]: 29.8%; viability, T/C [28]: 39.6%; viability, T/C [29]: 18.3%; viability, T/C [30]: 45.1%
COc1ccc([C@@H](O)c2cc(-c3ncnc4cc(N5CCOCC5)ccc34)c(F)cc2Cl)nn1 + Cn1nnc2c(C(N)=O)ncn2c1=O | 5420 nM | < 31.6 nM | < 31.6 nM | < 31.6 nM | < 31.6 nM | 92% | 72.6% | 24.2% | 26.6% | 27.2% | 17.2% | 22.2% | 5.58% | 6.14% | 3.36% | 5.1% | 5.03% | 5.47% | 5.06% | 5.28% | viability, T/C [1]: 86.8%; viability, T/C [3]: 95.2%; outcome [4]: inactive; viability, T/C [19]: 8.19%; viability, T/C [20]: 12.4%; viability, T/C [21]: 14.6%; viability, T/C [22]: 17.1%; viability, T/C [23]: 5.03%; viability, T/C [24]: 5.45%; viability, T/C [25]: 20.6%; viability, T/C [26]: 34.8%; viability, T/C [27]: 63.5%; viability, T/C [28]: 35.5%; viability, T/C [29]: 20.1%; viability, T/C [30]: 12.2%
Cc1cc(C)c(CNC(=O)c2cc(-c3ccc(CN4CCOCC4)cc3)cc3c2cnn3C2CCCC2)c(=O)[nH]1 + Cn1nnc2c(C(N)=O)ncn2c1=O | > 10000 nM | < 31.6 nM | < 31.6 nM | < 31.6 nM | < 31.6 nM | 82.9% | 82.3% | 78.8% | 24.3% | 13.1% | 16.6% | 22% | 14.7% | 19.3% | 4.25% | 19.8% | 10.5% | 3.64% | 5.17% | 4.06% | viability, T/C [1]: 88.9%; viability, T/C [3]: 89.8%; outcome [4]: inactive; viability, T/C [19]: 18.2%; viability, T/C [20]: 20.3%; viability, T/C [21]: 20.4%; viability, T/C [22]: 5.16%; viability, T/C [23]: 13.7%; viability, T/C [24]: 12%; viability, T/C [25]: 34.9%; viability, T/C [26]: 63.6%; viability, T/C [27]: 52.6%; viability, T/C [28]: 46.8%; viability, T/C [29]: 66.2%; viability, T/C [30]: 44.2%
[2H]c1nc(C)nc([2H])c1-c1cc(NC[C@@H](C)c2cccc3c(C(=O)NC)ccnc23)ncn1 + Cn1nnc2c(C(N)=O)ncn2c1=O | > 10000 nM | < 31.6 nM | < 31.6 nM | < 31.6 nM | < 31.6 nM | 91.9% | 89.2% | 89.3% | 33.1% | 29.5% | 21.9% | 28.1% | 13.1% | 27.3% | 4.05% | 4.95% | 5.87% | 7.24% | 4.35% | 11.5% | viability, T/C [1]: 91.3%; viability, T/C [3]: 85.3%; viability, T/C [4]: 85.3%; viability, T/C [19]: 20.8%; viability, T/C [20]: 19.9%; viability, T/C [21]: 11.3%; viability, T/C [22]: 15.1%; viability, T/C [23]: 6.28%; viability, T/C [24]: 5.54%; viability, T/C [25]: 61.9%; viability, T/C [26]: 36.3%; viability, T/C [27]: 22.1%; viability, T/C [28]: 59%; viability, T/C [29]: 46.6%; viability, T/C [30]: 34.6%
